Source: patent publication US5565433A, “Sulfated β-glycolipid derivatives as cell adhesion inhibitors” (Bristol-Myers Squibb Company, priority 1996, dated 1996)

What was measured:
P-selectin = target: T1, P-selectin (Homo sapiens, UniProt P16109); assay: P-Selectin Adhesion Receptor Binding: cell-free ELISA, inhibition of P-selectin binding to immobilized sulfatides; conditions: immobilized sulfatide, pH 8.0
T1 construct: consists of the human lectin domain, the EGF domain, and two complement repeats of the human selectins; made in house
From the text: 1. P-Selectin Adhesion Receptor Binding
P-selectin (GMP140, granule membrane protein-140, PADGEM, or CD62) is a calcium-dependent transmembrane protein found in alpha granules of endothelial cells and platelets. It is an inducible selectin produced on activated endothelium and platelets which recognize alpha(2-3)sialylated and alpha(1-3)fucosylated lactosaminoglycans which include the sequence, Lewis x (Zhou et al., J. Cell. Biol., (1991) 115 (2): 557-564) and sulfatides (3-sulfated galactosyl ceramides, Aruffo, et al., Cell (1991) 67: 35-44). P-selectin may be responsible for the initial adhesion events between endothelium and neutrophils as evidenced by leukocyte rolling induced by P-selectin in flow cells (Lawrence, M., and T. Springer, Cell (1991) 65: 859-873).
Based on the availability of soluble forms of P-selectin prepared as described by Aruffo, A., et al., Cell, 67, 35-44 (1991), a binding ELISA based assay modified from Foxall, et al., J., Cell Biol., 117, 895-902 (1992) was developed to measure inhibitors of P-selectin binding to immobilized sulfatides. Such inhibitors were tested in the assay described below.
0.1 ml of sulfatide (SIGMA) or lysosulfatide (SIGMA) each at 1 μg/ml in MeOH were added to the wells of a 96-well ELISA plate (ProBind, Falcon) and allowed to dry overnight at room temperature. The next day the antigen coated plates were blocked for 1.5 hours at room temperature with 5% BSA (ICN) in buffer containing 20mM Hepes and 0.15 M NaCl, pH 8.0. Wild type P-selectin and mutants thereof were first mixed with HRP-conjugated goat anti-human IgG (Fisher Scientific), serially diluted and then incubated for 30 minutes at 37° C. in buffer containing 20 mM Hepes, 0.15 M NaCl, 1% BSA and 0.8 mM CaCl2, pH 8.0 prior to addition to the BSA blocked plates. Following the 30 minute preincubation, the fusion protein-HRP conjugate immunocomplexes were incubated on the blocked antigen coated plates for 45 minutes at 37° C. in the presence or absence of the test compounds and then washed to remove any unbound proteins. Bound complexes were detected by addition of substrate buffer (95 mM NaOAc.3H2 O, 5 mM citric acid monohydrate, 1.4 mM urea/H2O2) containing 3, 3', 5, 5' Tetramethylbenzidine (SIGMA). Reactions were stopped by the addition of 3N sulfuric acid and the absorbance read on an ELISA reader at dual wavelengths 450 and 630 nm. The efficacy of these compounds was compared to that of sulfatide (positive control) or to lysosulfatide (negative control). The data is obtained as percent inhibition of specific binding [formula] and a plot of dose vs. percent inhibition of Rg binding is generated in which IC50 (μM) is calculated and reported as cell free data in Table 1.

[1] = test system: Reverse Passive Arthus Reaction in Rats; assay: Reverse Passive Arthus Reaction in Rats, vascular permeability (VP); assay type: in vivo; conditions: rat, IV, % inhibition at 3 mg single dose, 4 hours
From the text: 3. Reverse Passive Arthus Reaction in Rats
The reverse passive Arthus reaction in rats is a modification of the method by Mulligan et al., as described in J. Clin. Invest., (1991 ) 88:1396-1406. This is an experimental model in which the interaction of antigen-antibody complexes and complement leads to a severe vasculitis that is associated with edema, induration, erythema and hemorrhage. The interaction between the antigen-antibody complexes and complement leads to a localized influx of neutrophils. These neutrophils release a variety of mediators that are associated with tissue damage and vascular permeability. The localized inflammatory reaction is measured using different techniques i.e., vascular permeability and neutrophil influx which is evaluated both biochemically and microscopically.
Male Sprague Dawley specific pathogen-free rats with jugular vein cannulae (280-320 g, Hill Top Labs, Pa.) are used in these studies. Animals are acclimated for at least 1 day and individually housed in stainless steel cages. The dorsal region of the rats is closely clipped 2 days prior to the experiments and divided into 4 sites on each side of the midline. Prior to all injections the rats are sedated with 0.4 ml per 300 gm rat of ketamine/rompun [1000 mg (10 ml) of ketamine HCL is mixed with 40 mg (2.0 ml) Rompun] administered IP and or inhalation anesthesia with metafane (methoxyflurane).
Bovin Serum Albumin (BSA) and rabbit polyclonal IgG rich in anti-BSA are purchased from Sigma Chemical Co. (St. Louis, Mo.). Radiolabelled ^125 I-BSA (spAct 1-5 μCi/μg) is purchased from Dupont NEN (Boston, Mass.).
Each rat is administered intradermal (ID) injection of (0.4 mg, 0.6 mg and 0.8 mg) anti-BSA in a volume of 100 μl per injection in normal saline. The ID injections are randomized near the mid dorsal region on both sides of the back bone. Immediately after the ID injections of the anti-BSA, the rats are administered intravenous (IV) injections of BSA (10 mg in 1.0 ml) in normal saline containing ^125 I labeled BSA (1 μCi/ml BSA or 5.0 μCi/kg body wt) for quantification of dermal vascular injury. Anti-inflammatory agents such as inhibitors of adhesion molecules of the present invention are administered IV at a single dose of 3 mg immediately after BSA. Four (4) hours after the IV injection of BSA, the rats are anesthetized with metafane and 2 to 3 ml of blood is withdrawn via the cannula into an anticoagulant containing (EDTA or Heparin) tube and plasma separated and saved for neutrophil and albumin quantitation. The rats are killed and the skin surrounding the injection site (15 mm diameter) is punched out and weighed. The skin samples and a fixed volume of plasma (0.1 to 1.0 ml) is analyzed in a gamma-counter for ^125 I content. Skin samples from the contralateral side are processed and analyzed for myeloperoxidase activity (MPO) as a measure of neutrophil accumulation. As needed, samples are also processed for histological evaluation of the reacted sites.
Vascular Permeability (VP)
The calculation of the plasma protein exudation into skin is made by determining the radioactivity in the tissue and relating this to the level of radioactive albumin in the blood at the time of sacrifice. […] [formula]
Percent inhibition of the test compound at 3 mg was determined as follows: [formula] Myeloperoxidase (MPO)

T1 sequence (P16109 with tags, fused parts or gaps limits assumed): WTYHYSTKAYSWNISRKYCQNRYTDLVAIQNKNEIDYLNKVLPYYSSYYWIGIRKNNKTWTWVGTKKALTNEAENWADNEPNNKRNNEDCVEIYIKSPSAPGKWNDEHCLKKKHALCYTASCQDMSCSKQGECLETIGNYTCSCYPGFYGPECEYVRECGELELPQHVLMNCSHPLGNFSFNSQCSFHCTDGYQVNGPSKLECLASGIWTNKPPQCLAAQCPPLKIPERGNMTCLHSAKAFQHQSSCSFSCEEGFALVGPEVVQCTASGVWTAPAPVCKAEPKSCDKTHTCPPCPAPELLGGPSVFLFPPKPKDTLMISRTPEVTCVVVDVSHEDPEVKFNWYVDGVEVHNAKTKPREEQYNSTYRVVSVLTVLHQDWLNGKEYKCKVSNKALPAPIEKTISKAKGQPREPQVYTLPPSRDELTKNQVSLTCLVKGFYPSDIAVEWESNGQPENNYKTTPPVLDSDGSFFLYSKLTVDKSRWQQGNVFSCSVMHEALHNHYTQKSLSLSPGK

SMILES | IC50 (P-selectin) | RPA VP % Inhib. [1]
CCCCCCCCCCCCC/C=C/[C@@H](O)[C@H](CO[C@@H]1O[C@H](COS(=O)(=O)O)[C@H](OS(=O)(=O)O)[C@H](O)[C@H]1O)NC(=O)CCCCCCCCCCCCCCC [Example 2, (2S,3R,4E)-3-Hydroxy-2-hexadecanoylamino-1-[4,6-di-O-(sodiumoxysulfonyl)-β-D-galactopyranosyloxy]-4-octadecene] | 1700 nM | 63%
CCCCCCCC/C=C\CCCCCCCCCCCCCC(=O)N[C@@H](CO[C@@H]1O[C@H](COS(=O)(=O)O)[C@H](OC(=O)c2ccccc2)[C@H](OC(=O)c2ccccc2)[C@H]1OS(=O)(=O)O)[C@@H](/C=C/CCCCCCCCCCCCC)OC(=O)c1ccccc1 [Example 7, (2S,3R,4E)-3-Benzoyloxy-1-[3,4-di-O-benzoyl-2,6-di-O-(sodiumoxysulfonyl)-β-D-galactopyranosyloxy]-2-(cis-15-tetracosenoylamino)-4-octadecene] | 1000 nM | 56%
